Test results: PubChem BioAssay (NCI)
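All cell lines were grown in 96-well plates and treated with compound for 48 hours. TGI marks complete inhibition of growth.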

Key:
Test in all cases: NCI-60 cell line screen, 48 h
COLO 205 colon = system: COLO 205 colon
KM12 colon = system: KM12 colon
CAKI-1 renal = system: CAKI-1 renal
NCI-H23 lung = system: NCI-H23 lung
HCT-15 colon = system: HCT-15 colon
EKVX NSCLC = system: EKVX NSCLC
SF-539 CNS = system: SF-539 CNS
MALME-3M melanoma = system: MALME-3M melanoma
SN12C renal = system: SN12C renal
786-0 renal = system: 786-0 renal
U251 CNS = system: U251 CNS
IGROV1 ovarian = system: IGROV1 ovarian
MOLT-4 leukemia = system: MOLT-4 leukemia
SNB-75 CNS = system: SNB-75 CNS
M14 melanoma = system: M14 melanoma
NCI-H226 lung = system: NCI-H226 lung
K-562 leukemia = system: K-562 leukemia
OVCAR-8 ovarian = system: OVCAR-8 ovarian
SK-MEL-28 melanoma = system: SK-MEL-28 melanoma
RPMI-8226 leukemia = system: RPMI-8226 leukemia
SNB-19 CNS = system: SNB-19 CNS
HL-60(TB) leukemia = system: HL-60(TB) leukemia
RXF-631 renal = system: RXF-631 renal
SF-268 CNS = system: SF-268 CNS
HOP-92 NSCLC = system: HOP-92 NSCLC
SNB-78 CNS = system: SNB-78 CNS
NCI-H460 lung = system: NCI-H460 lung
DLD-1 colon = system: DLD-1 colon
HCT-116 colon = system: HCT-116 colon
OVCAR-4 ovarian = system: OVCAR-4 ovarian
DMS 114 small cell lung = system: DMS 114 small cell lung
SK-MEL-5 melanoma = system: SK-MEL-5 melanoma
KM20L2 colon = system: KM20L2 colon
OVCAR-5 ovarian = system: OVCAR-5 ovarian
HOP-62 NSCLC = system: HOP-62 NSCLC
SW-620 colon = system: SW-620 colon
A498 renal = system: A498 renal
HOP-18 NSCLC = system: HOP-18 NSCLC
SK-OV-3 ovarian = system: SK-OV-3 ovarian
SK-MEL-2 melanoma = system: SK-MEL-2 melanoma
UO-31 renal = system: UO-31 renal
A549 NSCLC = system: A549 NSCLC
LXFL 529 NSCLC = system: LXFL 529 NSCLC
SR leukemia = system: SR leukemia
DMS 273 small cell lung = system: DMS 273 small cell lung
ACHN renal = system: ACHN renal
UACC-257 melanoma = system: UACC-257 melanoma
M19-MEL melanoma = system: M19-MEL melanoma
HT29 colon = system: HT29 colon
OVCAR-3 ovarian = system: OVCAR-3 ovarian
NCI-H522 lung = system: NCI-H522 lung
SF-295 CNS = system: SF-295 CNS
LOX IMVI melanoma = system: LOX IMVI melanoma
TK-10 renal = system: TK-10 renal
RXF 393 renal = system: RXF 393 renal
CCRF-CEM leukemia = system: CCRF-CEM leukemia
UACC-62 melanoma = system: UACC-62 melanoma
HCC-2998 colon = system: HCC-2998 colon
XF 498 CNS = system: XF 498 CNS
BT-549 breast = system: BT-549 breast
MDA-MB-231 breast = system: MDA-MB-231 breast
NCI/ADR-RES ovarian = system: NCI/ADR-RES ovarian
MCF7 breast = system: MCF7 breast
T-47D breast = system: T-47D breast
MDA-MB-435 = system: MDA-MB-435
PC-3 prostate = system: PC-3 prostate
HS 578T breast = system: HS 578T breast
DU-145 prostate = system: DU-145 prostate
MDA-N = system: MDA-N

COc1ccc2c(c1)[n+]([O-])c(-c1ccccc1Cl)c(N)[n+]2[O-]
TGI (COLO 205 colon): 32.6 µM
TGI (KM12 colon): > 100 µM
TGI (CAKI-1 renal): > 100 µM
TGI (NCI-H23 lung): > 100 µM
TGI (HCT-15 colon): > 100 µM
TGI (EKVX NSCLC): > 100 µM
TGI (SF-539 CNS): > 100 µM
TGI (MALME-3M melanoma): > 100 µM
TGI (SN12C renal): > 100 µM
TGI (786-0 renal): > 100 µM
TGI (U251 CNS): > 100 µM
TGI (IGROV1 ovarian): > 100 µM
TGI (MOLT-4 leukemia): > 100 µM
TGI (SNB-75 CNS): > 100 µM
TGI (M14 melanoma): > 100 µM
TGI (NCI-H226 lung): > 100 µM
TGI (K-562 leukemia): > 100 µM
TGI (OVCAR-8 ovarian): > 100 µM
TGI (SK-MEL-28 melanoma): > 100 µM
TGI (RPMI-8226 leukemia): > 100 µM
TGI (SNB-19 CNS): > 100 µM
TGI (HL-60(TB) leukemia): > 100 µM
TGI (RXF-631 renal): > 100 µM
TGI (SF-268 CNS): > 100 µM
TGI (HOP-92 NSCLC): > 100 µM
TGI (SNB-78 CNS): > 100 µM
TGI (NCI-H460 lung): > 100 µM
TGI (DLD-1 colon): > 100 µM
TGI (HCT-116 colon): > 100 µM
TGI (OVCAR-4 ovarian): > 100 µM
TGI (DMS 114 small cell lung): > 100 µM
TGI (SK-MEL-5 melanoma): > 100 µM
TGI (KM20L2 colon): > 100 µM
TGI (OVCAR-5 ovarian): > 100 µM
TGI (HOP-62 NSCLC): > 100 µM
TGI (SW-620 colon): > 100 µM
TGI (A498 renal): > 100 µM
TGI (HOP-18 NSCLC): > 100 µM
TGI (SK-OV-3 ovarian): > 100 µM
TGI (SK-MEL-2 melanoma): > 100 µM
TGI (UO-31 renal): > 100 µM
TGI (A549 NSCLC): > 100 µM
TGI (LXFL 529 NSCLC): > 100 µM
TGI (SR leukemia): > 100 µM
TGI (DMS 273 small cell lung): > 100 µM
TGI (ACHN renal): > 100 µM
TGI (UACC-257 melanoma): > 100 µM
TGI (M19-MEL melanoma): > 100 µM
TGI (HT29 colon): > 100 µM
TGI (OVCAR-3 ovarian): > 100 µM
TGI (NCI-H522 lung): 31.3 µM
TGI (SF-295 CNS): > 100 µM

O=S(O)c1cc(Cl)c(O)c(Cl)c1
TGI (KM12 colon): > 100 µM
TGI (NCI-H23 lung): > 100 µM
TGI (LOX IMVI melanoma): > 100 µM
TGI (TK-10 renal): > 100 µM
TGI (EKVX NSCLC): > 100 µM
TGI (SF-539 CNS): > 100 µM
TGI (MALME-3M melanoma): > 100 µM
TGI (SN12C renal): > 100 µM
TGI (U251 CNS): > 100 µM
TGI (MOLT-4 leukemia): > 100 µM
TGI (SNB-75 CNS): > 100 µM
TGI (M14 melanoma): > 100 µM
TGI (K-562 leukemia): > 100 µM
TGI (SK-MEL-28 melanoma): > 100 µM
TGI (SNB-19 CNS): > 100 µM
TGI (HL-60(TB) leukemia): > 100 µM
TGI (RXF-631 renal): > 100 µM
TGI (SF-268 CNS): > 100 µM
TGI (SNB-78 CNS): > 100 µM
TGI (NCI-H460 lung): > 100 µM
TGI (DLD-1 colon): > 100 µM
TGI (HCT-116 colon): > 100 µM
TGI (RXF 393 renal): > 100 µM
TGI (OVCAR-4 ovarian): > 100 µM
TGI (CCRF-CEM leukemia): > 100 µM
TGI (DMS 114 small cell lung): > 100 µM
TGI (OVCAR-5 ovarian): > 100 µM
TGI (HOP-62 NSCLC): > 100 µM
TGI (UACC-62 melanoma): > 100 µM
TGI (A498 renal): > 100 µM
TGI (SK-OV-3 ovarian): > 100 µM
TGI (SK-MEL-2 melanoma): > 100 µM
TGI (HCC-2998 colon): > 100 µM
TGI (XF 498 CNS): > 100 µM
TGI (UO-31 renal): > 100 µM
TGI (LXFL 529 NSCLC): > 100 µM
TGI (SR leukemia): > 100 µM
TGI (ACHN renal): > 100 µM
TGI (UACC-257 melanoma): > 100 µM
TGI (M19-MEL melanoma): > 100 µM
TGI (HT29 colon): > 100 µM
TGI (OVCAR-3 ovarian): > 100 µM
TGI (NCI-H522 lung): > 100 µM

COc1ccc(-c2oc3cc(O)c(OC)c(O)c3c(=O)c2O)cc1
TGI (COLO 205 colon): > 80.6 µM
TGI (KM12 colon): > 100 µM
TGI (BT-549 breast): 72.8 µM
TGI (CAKI-1 renal): 65.3 µM
TGI (NCI-H23 lung): > 100 µM
TGI (HCT-15 colon): 52.2 µM
TGI (LOX IMVI melanoma): > 78.6 µM
TGI (MDA-MB-231 breast): > 100 µM
TGI (TK-10 renal): > 100 µM
TGI (NCI/ADR-RES ovarian): 48.5 µM
TGI (EKVX NSCLC): > 100 µM
TGI (SF-539 CNS): 41.6 µM
TGI (MCF7 breast): 63.7 µM
TGI (MALME-3M melanoma): 88.2 µM
TGI (T-47D breast): > 100 µM
TGI (SN12C renal): > 75.2 µM
TGI (786-0 renal): 33.1 µM
TGI (U251 CNS): 30.2 µM
TGI (IGROV1 ovarian): > 100 µM
TGI (MDA-MB-435): > 100 µM
TGI (MOLT-4 leukemia): 12.9 µM
TGI (SNB-75 CNS): 63.2 µM
TGI (M14 melanoma): > 100 µM
TGI (NCI-H226 lung): 24.4 µM
TGI (PC-3 prostate): > 100 µM
TGI (K-562 leukemia): > 53.5 µM
TGI (OVCAR-8 ovarian): > 75.3 µM
TGI (SK-MEL-28 melanoma): > 100 µM
TGI (RPMI-8226 leukemia): 31.5 µM
TGI (SNB-19 CNS): > 100 µM
TGI (HL-60(TB) leukemia): 9.19 µM
TGI (RXF-631 renal): > 100 µM
TGI (SF-268 CNS): > 77.1 µM
TGI (HOP-92 NSCLC): > 72.3 µM
TGI (SNB-78 CNS): > 100 µM
TGI (NCI-H460 lung): 26.4 µM
TGI (DLD-1 colon): 30.8 µM
TGI (HCT-116 colon): > 66.6 µM
TGI (RXF 393 renal): 50.2 µM
TGI (OVCAR-4 ovarian): > 100 µM
TGI (CCRF-CEM leukemia): 14.8 µM
TGI (SK-MEL-5 melanoma): 34 µM
TGI (KM20L2 colon): > 100 µM
TGI (OVCAR-5 ovarian): > 70.1 µM
TGI (HOP-62 NSCLC): 25.7 µM
TGI (SW-620 colon): > 70.1 µM
TGI (UACC-62 melanoma): > 87.8 µM
TGI (A498 renal): 22.3 µM
TGI (HOP-18 NSCLC): > 100 µM
TGI (SK-OV-3 ovarian): 42.8 µM
TGI (SK-MEL-2 melanoma): > 100 µM
TGI (HS 578T breast): > 92.7 µM
TGI (HCC-2998 colon): > 60.2 µM
TGI (XF 498 CNS): > 100 µM
TGI (UO-31 renal): > 61.3 µM
TGI (A549 NSCLC): 18 µM
TGI (LXFL 529 NSCLC): > 100 µM
TGI (SR leukemia): 20.8 µM
TGI (DMS 273 small cell lung): 30 µM
TGI (ACHN renal): 10.7 µM
TGI (UACC-257 melanoma): > 100 µM
TGI (M19-MEL melanoma): > 100 µM
TGI (DU-145 prostate): > 24.9 µM
TGI (HT29 colon): > 100 µM
TGI (OVCAR-3 ovarian): > 100 µM
TGI (MDA-N): > 100 µM
TGI (NCI-H522 lung): 57.8 µM
TGI (SF-295 CNS): 53.6 µM
